Measurements published in patent publication US20040087653A1, “Methods for the treatment of respiratory diseases and conditions with a selective iNOS inhibitor and a PDE inhibitor and compositions therefor” (priority 2002, published 2004).
Where a name gives a salt, the structure may show the parent alone.

Legend:
[1] = tested on: exhaled breath nitric oxide (NO); assay: Clinical study: exhaled breath NO after single oral dose; format: in vivo, human
Procedure: (§1) A single center study was performed at the National Heart and Lung Institute (NHLI) Clinical Studies Unit in London, UK. The clinical protocol was submitted and accepted by the Ethics Committee of the Royal Brompton Hospital Trust, and the study was carried out according to Good Clinical Practice standards. Each subject provided written informed consent.
(§2) Twenty-four, adult, healthy volunteers and 24 patients with mild asthma participated in this study. All subjects were lifelong non-smokers. Asthma patients (n=24) had mild asthma according to American Thoracic Society Criteria, with medication on an as required basis with inhaled albuterol only. […] All asthmatic patients had baseline exhaled breath NO levels of >15 parts per billion (ppb). Healthy control (n=24) subjects were matched for age and sex, and had no clinically significant disease. Healthy subjects were required to have baseline exhaled NO levels between 4 and 9 ppb.
(§3) The study included 2 panels of healthy volunteers and asthmatic patients who received in a double-blind, randomized manner, a single dose of oral compound NN or placebo. The study was carried out in two phases according to the dose of compound NN under investigation. The first panel consisted of patients with mild-to-moderate asthma (n=12) and healthy subjects (n=12) who received single doses of 20 mg of compound NN and placebo, while the second panel of mild-to-moderate asthmatics (n=12) and healthy subjects (n=12) received single doses of 200 mg of compound NN and placebo. No patient or subject participated in both panels of this study. Evaluation of the first panel was completed before moving on to the second panel. The study evaluated the tolerability and pharmacokinetics of orally-administered compound NN and monitored levels of exhaled breath NO.
Measurement of exhaled NO: Exhaled NO was measured using a chemoluminescence analyzer (Logan 2000, Rochester, UK) and methods in accordance with International Guidelines. The analyser was calibrated daily using a certified NO mixture of 50 to 200 ppb (BOC Special gases, Guildford, UK) and ambient air NO recordings made on an hourly basis. Subjects were asked to refrain from strenuous exercise before any measurement. Each subject was seated for at least 5 minutes before any measurement was taken and remained seated throughout the procedure. […] Two successive recordings were taken, and the average value was calculated.
Statistical methods for clinical data: Exhaled NO data, including change from baseline and the percentage change, were tested for normality using the Shapiro-Wilks test. […] The area under the curve (AUC) for the change from baseline and the percentage change, and the differences between active and placebo were calculated. […]

[2] = biological target: T1, human endothelial constitutive NOS (hecNOS) (Homo sapiens, UniProt P29474); assay: Citrulline assay for nitric oxide synthase, hecNOS; format: biochemical; settings: averages across all experiments and all lots; 30 μM L-arginine
T1 construct: made in house; host or cells: Sf9 insect cells, baculovirus vector
Excerpt: Nitric oxide synthase (NOS) activity can be measured by monitoring the conversion of L-[2,3-^3H]-arginine to L-[2,3-^3H]-citrulline (Bredt and Snyder, Proc. Natl. Acad. Sci. U.S.A., 87, 682-685, 1990 and Moore et al, J. Med. Chem., 39, 669-672, 1996). Human inducible NOS (hiNOS), human endothelial constitutive_NOS (hecNOS) and human neuronal constitutive NOS (hncNOS) are each cloned from RNA extracted from human tissue. The cDNA for human inducible NOS (hiNOS) is isolated from a λcDNA library made from RNA extracted from a colon sample from a patient with ulcerative colitis. The cDNA for human endothelial constitutive NOS (hecNOS) is isolated from a λcDNA library made from RNA extracted from human umbilical vein endothelial cells (HUVEC) and the cDNA for human neuronal constitutive NOS (hncNOS) is isolated from a λcDNA library made from RNA extracted from human cerebellum obtained from a cadaver. The recombinant enzymes are expressed in Sf9 insect cells using a baculovirus vector (Rodi et al, in The Biology of Nitric Oxide, Pt. 4: Enzymology, Biochemistry and Immunology; Moncada, S., Feelisch, M., Busse, R., Higgs, E., Eds.; Portland Press Ltd.: London, 1995; pp 447-450). […] After mixing the resin is allowed to settle and L-[2,3-^3H]-Citrulline formation is determined by counting aliquots of the supernatant with a liquid scintillation counter. […]

[3] = Clinical study: tolerability, FEV1, blood pressure, heart rate, laboratory parameters; format: in vivo, human; settings: single oral dose
Procedure: as §1, §2, §3
Forced expiratory volume in 1 sec (FEV1) and heart rate data had no significant deviations from normality using the Shapiro-Wilks test, therefore parametric statistical methods were used, and the significance of the change from baseline was tested using a paired […]. […]

i-NOS = i-NOS (Homo sapiens, UniProt P35228); assay: i-NOS inhibition, comparison with NIL amides
[4] = healthy volunteers and asthmatics

i-NOS, sequence (P35228 whole entry): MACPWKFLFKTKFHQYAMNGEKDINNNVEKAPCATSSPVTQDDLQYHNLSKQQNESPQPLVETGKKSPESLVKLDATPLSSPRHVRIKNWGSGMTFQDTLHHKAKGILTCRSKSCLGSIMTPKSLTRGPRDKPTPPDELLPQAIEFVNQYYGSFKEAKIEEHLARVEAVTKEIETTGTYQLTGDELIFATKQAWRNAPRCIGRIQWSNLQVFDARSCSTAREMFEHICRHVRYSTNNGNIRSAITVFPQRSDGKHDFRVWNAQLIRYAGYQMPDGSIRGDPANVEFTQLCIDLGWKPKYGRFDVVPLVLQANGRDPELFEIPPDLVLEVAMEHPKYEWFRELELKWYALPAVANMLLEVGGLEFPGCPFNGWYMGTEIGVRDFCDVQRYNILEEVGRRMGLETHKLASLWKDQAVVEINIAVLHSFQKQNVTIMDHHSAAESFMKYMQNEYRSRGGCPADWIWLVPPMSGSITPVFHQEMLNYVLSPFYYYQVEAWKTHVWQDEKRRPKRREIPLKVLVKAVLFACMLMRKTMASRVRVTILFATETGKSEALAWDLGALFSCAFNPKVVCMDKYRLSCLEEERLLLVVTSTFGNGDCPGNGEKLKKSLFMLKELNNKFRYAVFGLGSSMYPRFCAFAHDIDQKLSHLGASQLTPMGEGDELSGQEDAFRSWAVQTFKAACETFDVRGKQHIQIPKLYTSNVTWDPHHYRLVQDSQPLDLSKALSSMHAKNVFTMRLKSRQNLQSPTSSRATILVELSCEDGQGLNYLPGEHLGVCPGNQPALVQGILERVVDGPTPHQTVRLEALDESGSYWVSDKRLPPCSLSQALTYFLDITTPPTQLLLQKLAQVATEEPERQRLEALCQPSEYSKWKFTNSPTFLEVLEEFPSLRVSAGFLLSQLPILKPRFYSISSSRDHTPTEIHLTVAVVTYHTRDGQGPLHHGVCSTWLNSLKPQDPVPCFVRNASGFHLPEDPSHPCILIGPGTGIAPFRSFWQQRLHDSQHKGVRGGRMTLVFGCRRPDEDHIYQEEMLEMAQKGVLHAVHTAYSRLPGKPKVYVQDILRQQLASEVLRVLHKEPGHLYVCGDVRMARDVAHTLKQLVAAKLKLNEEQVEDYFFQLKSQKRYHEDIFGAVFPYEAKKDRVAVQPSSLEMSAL

For CC(=N)NCCCC[C@H](N)C(=O)Nc1nnn[nH]1 [Example NN, 2S-amino-6-[(1-iminoethyl)amino]-N-(1H-tetrazol-5-yl)hexanamide, hydrate, dihydrochloride], the “inhibition of exhaled NO in asthma” value ([1]; 200 mg single oral dose) was 95%, the “residual exhaled NO” value [1, 4] was less than 1 ppb and the “change in exhaled NO” value ([1]; single oral dose 20 mg or 200 mg, healthy volunteers and asthmatics, 72 hour assessment) was “rapid reduction in exhaled NO”. For the same molecule, the “duration of the decrease in exhaled breath NO” value ([1]; single oral dose, healthy volunteers and asthmatics) was 3 days, the IC50 [2] was 2420 µM and the “effect on haematology or blood biochemistry” value [3] was “no effect”. For the same molecule, the “effects on heart rate, blood pressure and FEV1” value [3] was “no apparent effects”, the tolerability [3, 4] was “well tolerated” and the “i-NOS inhibitory potency compared with NIL amide or NIL dimethylamide” value (i-NOS) was “more potent i-NOS inhibitor”.
